Read-outs that look alike come from different tables or passages of the source.

For assay [1], the system named is AMPK. Description: AMPK activation in MEFs with cycloheximide (western blot). Type of assay: cell-based, mouse. As to conditions: 25 μg/ml cycloheximide for 8 hours. From the text: Since Ago2 slicer activity uniquely regulates RNA silencing, Applicant then asked if the slicer activity is involved in the regulation of energy consumption and AMPK activation. […] More importantly, Applicant also observed that AMPK activity, assessed by phosphorylation levels of AMPKα and ACC, was higher in Ago2-deficient MEFs under serum starvation condition (FIG. 16A). […] While activated AMPKα is known to suppress mRNA translation^41, levels of nascent protein synthesis in Ago2-deficient MEFs are increased compared to the cells reconstituted with WT Ago2 (FIG. 16B). To investigate if enhanced protein synthesis reasons AMPK activation in Ago2-deficiency, Applicant treated MEFs with cycloheximide (CHX), a protein synthesis inhibitor, and monitored AMPK activation.
Mouse embryonic fibroblasts. Ago2-deficient fibroblasts reconstituted with Ago2 WT or DA mutant that were kindly provided by Dr. Eric Lai^22. Applicant generated Ago2^fl/fl MEFs through the 3T3 protocol and performed an adenovirus-mediated gene transfer for Cre or LacZ expression to obtain Ago2-deficient MEFs^60. MEF cells were cultured in Dulbecco Modified Eagle Medium (DMEM) (Thermo Fisher Scientific: #11965) supplemented with 10% FBS. For western blot analyses of AMPK, MEF cells were plated at a density of 1×10^5 cells per well of 6-well plate for overnight. […]
(A western blot detects proteins with antibodies after separation by electrophoresis.)

Assay [2] deals with primary hepatocytes. Description: Glucose production assay in primary hepatocytes. Type of assay: cell-based, mouse. The note with it: primary hepatocytes from L-Ago2 WT and KO mice, 100 or 200 μM. How it is done: To investigate how Ago2 regulates glucose metabolism, Applicant first examined capacities of hepatic gluconeogenesis in Ago2-deficient primary hepatocytes. […] Applicant additionally asked if Ago2 regulates the fundamental catabolic capacities of hepatocytes. To examine the glycolytic rate, the extracellular acidification rate (ECAR) was determined in primary hepatocytes upon addition of glucose. […] Glycolysis produces pyruvate that is used as an energy source for the citric acid cycle.
Glucose production assay. Mouse primary hepatocytes were cultured in 12-well plates (0.4×10^6 cells per well) in William E supplemented with 10% FBS. Next day, cells were cultured with 1 ml of DMEM (5.5 mM glucose) supplemented with 10% FBS. Post plating for 21 hours, cells were washed twice with PBS and were subjected 3-4 hours to serum starvation with FBS-free DMEM (5.5 mM glucose). After washing twice with PBS, cells were cultured in 0.4 ml of glucose production buffer consisting of glucose-free DMEM (pH 7.4) without phenol red supplemented with 20 mM sodium lactate, 2 mM sodium pyruvate, 2 mM L-glutamine and 15 mM HEPES^62. Cells were incubated at 37° C. for 4.5 hours with or without Bt-cAMP or pCPT-cAMP. Both medium and cells were collected. The glucose concentration was measured with the Autokit Glucose (WAKO) and was normalized by the total protein content.

Assay [3] in a line: Fasting blood glucose in HFD-fed mice before and after oral metformin. Type of assay: in vivo, mouse. As to conditions: oral metformin 80 mg/kg/day for 7 days.
Procedure: (§1) Mice. Animal care and experimental procedures were performed according to procedures approved by the animal care committees of our medical center. […] The ALZET osmotic pump were used to deliver 10 nM S961 or vehicle (PBS) in a two-week period. GTTs were performed by intraperitoneal glucose injection (1.5 g/kg) following an overnight food withdrawal for 14 hours. […] Mouse plasma insulin levels were measured using Mouse Ultrasensitive Insulin ELISA kit (ALPCO).
The next assay deals with MD-miRNAs. Description: Hepatic miRNA and mRNA expression after S961 or S961 plus metformin treatment. Type of assay: in vivo, mouse. As to conditions: 2 weeks. The source says:
Expression profiles that assessed the effect of insulin insufficiency on miRNAs in the liver categorized four different classes of miRNAs; (I) dominantly expressed in L-Ago2 WT, (II) induced by S961 in both L-Ago2 WT and KO, (III) suppressed by S961 in both L-Ago2 WT and KO, and (IV) expressed in L-Ago2 KO (FIG. 3d). […] These analyses implicate hepatic Ago2-dependent miRNAs play a role in the disruption of glucose metabolism under the condition of insulin insufficiency.
Quantitative real-time PCR analysis. For mRNA quantification, total RNA was extracted using Trizol reagent (Invitrogen). Total RNA was converted to first strand cDNA using SuperScript® VILO™ cDNA Synthesis Kit (Invitrogen). Quantitative real-time PCR analysis was performed using SYBR Select Master Mix (Applied Biosystems) in a real-time PCR machine (QuantStudio 6 Flex Real-Time PCR system; Thermo Fisher Scientific). To normalize expression data, β-actin mRNA was used as a housekeeping gene. For miRNA quantification, total RNA was extracted using miRNeasy Micro Kit (Qiagen) according to manufacturer's instructions. TaqMan miRNA assays (Life Technologies) were used and real-time PCR were carried out for mature miRNA quantification. Primary miRNAs were quantified using TaqMan […] assays. Sno202 and β-actin were used as internal controls.
High-throughput sequencing of miRNA. […]

For assay [4], the system named is primary hepatocytes. Nature of the assay: ATP/ADP ratio assay in primary hepatocytes with metformin. Type of assay: cell-based, mouse. The note with it: Ago2-deficient primary hepatocytes, 1 mM metformin. From the text: To further examine if Ago2 deficiency accelerates cellular energy consumption associated with protein synthesis, Applicant treated primary hepatocytes with metformin, which is an anti-diabetic drug and inhibits mitochondrial respiratory-chain complex I activity restricting ATP generation^40, and measured ATP/ADP levels. […] To directly investigate the effect of Ago2-deficiency on protein synthesis in hepatocytes, Applicant measured the levels of nascent protein synthesis. […] By restricting energy supply using phenformin and rotenone, both of which inhibit mitochondrial respiratory-chain complex I activity, the levels of nascent protein synthesis in Ago2-deficient hepatocytes were equivalent or still higher compared to those in controls (FIG. 6G).
Primary hepatocytes. Hepatocytes were isolated from liver of 12-14 weeks old L-Ago2 WT and 607 L-Ago2 KO mice by a two-step perfusion method as described previously^59 with a slight modification. […]
ATP/ADP ratio assay. The ATP/ADP ratio in the mouse liver extract or primary hepatocytes was determined using a bioluminescent ATP/ADP Ratio Assay Kit (Abcam) according to the manufacturer's instructions. […]

For assay [5] the following is noted: for glucose tolerance (GTT): one week; for hepatic glycogen contents (S961-induced glycogenolysis) / serum insulin levels (S961-induced hyperinsulinemia): 2 weeks post S961 with metformin.
Procedure: as §1
For assay [6], the system named is AMPK. Nature of the assay: AMPK activation in primary hepatocytes with metformin (western blot). Type of assay: cell-based, mouse. The note with it: Ago2-deficient primary hepatocytes versus controls, 1 mM metformin.
Procedure: Primary hepatocytes. Hepatocytes were isolated from liver of 12-14 weeks old L-Ago2 WT and 607 L-Ago2 KO mice by a two-step perfusion method as described previously^59 with a slight modification. Briefly, the liver was first perfused with 30 ml of HBSS supplemented with 10 mM HEPES, 0.5 mM EGTA and 5 mM glucose and then digested with 35 mL of Collagenase X 610 (WAKO) at 100 U/mL dissolved in HBSS buffer supplemented with 10 mM HEPES and 5 mM CaCl2. Liver was collected after perfusion and hepatocyte were released and sedimented at 60 G for 2 mM. Hepatocyte suspension was then layered on a 40% percoll solution (GE Healthcare Life Sciences) and centrifuged at 800 G for 10 min. The alive hepatocytes were recovered from the bottom of the tube and seeded on culture plates.
Protein extraction and immunoblot analysis. To prepare protein lysates, cells were washed with cold PBS, followed by lysis in cold mammalian cell lysis buffer [MCLB: 50 mM Tris-HCl (pH 7.4), 150 mM NaCl, 10 mM NaF, 5% glycerol, 1% NP-40, 1% protease and phosphatase inhibitor cocktail]. […]

As for `C[C@@H]1C[C@@H]([C@H](O)CC2CC(=O)NC(=O)C2)C(=O)[C@@H](C)C1` [cycloheximide], the AMPK activation result is “more robust” in the assay with AMPK [1] (Ago2-deficient MEFs) and “reduction of AMPK activation” in the assay on AMPK [1] (WT MEFs).

As to `CCCC(=O)Nc1ncnc2c1ncn2[C@@H]1O[C@@H]2COP(=O)(O)O[C@H]2[C@H]1OC(=O)CCC` [Bt-cAMP, dibutyryl cyclic AMP], the glucose production result with primary hepatocytes [2] is “similarly induced between genotypes”.

For the compound `CN(C)C(=N)N=C(N)N` [metformin], the “fasting blood glucose levels” value in assay [3] (L-Ago2 KO mice fed HFD) was “no change upon metformin treatment”; in assay [3] (L-Ago2 WT mice fed HFD) it was “reduced fasting blood glucose levels”. Further, the “expression of MD-miRNAs in liver” value in the assay on MD-miRNAs (Ago2-deficient liver) is given as “did not affect their expression levels”. Besides, the “expression of S961-induced MD-miRNAs in liver” value in the assay on MD-miRNAs (L-Ago2 WT mice) is “drastic suppression”. In addition, the “relative ATP/ADP levels” value in the assay on primary hepatocytes [4] is recorded as “rapidly decreased”. Moreover, the “glucose tolerance (GTT)” value in assay [5] (L-Ago2 KO mice treated with S961, metformin 150 mg/kg/day via osmotic pumps) was “no change in glucose tolerance”; in assay [5] (L-Ago2 WT mice treated with S961, metformin 150 mg/kg/day via osmotic pumps) it was “improved glucose tolerance”. Also, the “hepatic glycogen contents (S961-induced glycogenolysis)” value is “blunted” in assay [5] (L-Ago2 KO mice) and “alleviated” in assay [5] (L-Ago2 WT mice). In addition, the “serum insulin levels (S961-induced hyperinsulinemia)” value in assay [5] (L-Ago2 KO mice) is “blunted”; in assay [5] (L-Ago2 WT mice), “alleviated S961-induced hyperinsulinemia”. Further, the “levels of metformin-induced AMPK activation” value with AMPK [6] is listed as “significantly higher than that in controls”.

As for `Nc1ncnc2c1nc(Sc1ccc(Cl)cc1)n2[C@@H]1O[C@@H]2COP(=O)([O-])O[C@H]2[C@H]1O.[Na+]` [pCPT-cAMP, 8-(4-Chlorophenylthio)adenosine 3′,5′-cyclic monophosphate], the glucose production result in the assay with primary hepatocytes [2] is listed as “similarly induced between genotypes”.
